Laboratory results published in patent US20030091557A1, “Methods and compositions for modulating ACE-2 activity” (priority 2001, published 2003).
Where a SMILES comes first, the peptide text is derived from it. Bridges are numbered along the chain shown (N, C = ends).

Each compound was assayed against ACE-2 (Homo sapiens, UniProt Q9BYF1) (assay: Fluorometric ACE-2 inhibition assay with peptide M-2195 as substrate). Settings: ACE-2, M-2195 substrate.
ACE-2, sequence (Q9BYF1 18-740): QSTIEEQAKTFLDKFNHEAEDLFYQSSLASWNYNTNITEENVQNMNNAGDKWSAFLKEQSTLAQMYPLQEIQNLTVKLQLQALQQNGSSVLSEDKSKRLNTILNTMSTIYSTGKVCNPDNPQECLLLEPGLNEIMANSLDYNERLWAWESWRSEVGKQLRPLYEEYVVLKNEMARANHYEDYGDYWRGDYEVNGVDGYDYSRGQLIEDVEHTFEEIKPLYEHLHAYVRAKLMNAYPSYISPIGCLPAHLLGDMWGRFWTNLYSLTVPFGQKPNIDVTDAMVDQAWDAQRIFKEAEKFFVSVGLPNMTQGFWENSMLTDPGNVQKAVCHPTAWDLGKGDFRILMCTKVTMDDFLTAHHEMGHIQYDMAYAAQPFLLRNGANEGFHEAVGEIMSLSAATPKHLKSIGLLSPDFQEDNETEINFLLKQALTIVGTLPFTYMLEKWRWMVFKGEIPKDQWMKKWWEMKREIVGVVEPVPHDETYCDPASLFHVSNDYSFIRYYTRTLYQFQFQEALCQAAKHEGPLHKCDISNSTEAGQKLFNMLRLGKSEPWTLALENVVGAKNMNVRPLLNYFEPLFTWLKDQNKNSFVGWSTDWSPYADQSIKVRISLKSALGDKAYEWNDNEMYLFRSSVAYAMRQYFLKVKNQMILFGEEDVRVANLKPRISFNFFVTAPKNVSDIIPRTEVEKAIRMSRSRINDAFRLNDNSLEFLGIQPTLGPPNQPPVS
Type: biochemical
Design: nucleotides corresponding to the extracellular domain (M1-S740); FLAG; made in house; host or cells: Sf9 insect cells, recombinant baculovirus (transfer vector pA2); enzyme purified from conditioned media
Description: Substrate stock (10 μL of 10× concentration) was added to each well to be tested in blocks of three vertically down the plate. The reaction was monitored on a Spectrafluor Plus (Tecan) at an excitation wavelength of 340 nm and an emission wavelength of 400 nm (+/−35 nm) every 30 seconds for a time period of 10 minutes.
ACE-2 cleaves off the C-terminal lysine from the peptide with a concomitant increase in fluorescence signal.
The assays were performed in 96-well clear-bottom black plates (Costar, 07-200-590). In each well, 0.45 μg (5 pmoles) of ACE-2 is added to 90 μL of an assay solution containing 100 mM TRIS at pH 7.4, 0.1% Tween, and 0.4% DMSO. Substrate stock at 10 μL of 10× concentration is added to each well (for example, 10 μL of 1 mM stock for a final 100 μM concentration). The reaction was monitored on a Spectrafluor Plus (Tecan) at an excitation wavelength of 340 nm and an emission wavelength of 400 nm (+/−35 nm) every 30 seconds up to 10 minutes. All samples were measured in triplicate. […]
With `CSCC[C@@H]1NC(=O)[C@H](Cc2c[nH]c3ccccc23)NC(=O)[C@@H]2CCCN2C(=O)[C@H](CO)NC(=O)[C@H](CCC(N)=O)NC(=O)[C@H](CCCNC(=N)N)NC(=O)[C@H](CCC(N)=O)NC(=O)[C@@H]2CCCN2C(=O)[C@H](CCCCN)NC(=O)[C@@H](NC(=O)[C@H](Cc2c[nH]cn2)NC(=O)[C@H](CC(C)C)NC(=O)[C@H](CCCNC(=N)N)NC(=O)[C@H](CC(=O)O)NC(=O)CNC(C)=O)CSSC[C@@H](C(=O)N[C@@H](CCC(N)=O)C(=O)N[C@@H](Cc2c[nH]cn2)C(=O)N[C@@H](CC(C)C)C(=O)N[C@@H](CC(=O)O)C(=O)N2CCC[C@H]2C(=O)N[C@@H](CCC(=O)O)C(=O)NCC(=O)NCC(=O)NCC(N)=O)NC(=O)[C@H](CCCCN)NC1=O` [DX-512] (Ac-GDRLHCKPQRQSPWMKCQHLDPEGGG-NH2; disulfide 6-17) the Ki was 150 nM.
`CC(=O)NCC(=O)N[C@@H](CC(=O)O)C(=O)N[C@@H](CC(C)C)C(=O)N[C@@H](Cc1c[nH]cn1)C(=O)N[C@@H](C)C(=O)N[C@H]1CSSC[C@@H](C(=O)N[C@H](C(=O)N[C@@H](CC(C)C)C(=O)NCC(=O)N[C@@H](CC(=O)O)C(=O)N2CCC[C@H]2C(=O)N[C@@H](CCC(=O)O)C(=O)NCC(=O)NCC(=O)NCC(N)=O)[C@@H](C)O)NC(=O)[C@H](C)NC(=O)[C@H](Cc2c[nH]c3ccccc23)NC(=O)[C@H](Cc2c[nH]c3ccccc23)NC(=O)[C@@H]2CCCN2C(=O)[C@H](CC(=O)O)NC(=O)CNC(=O)[C@H](CCCNC(=N)N)NC(=O)[C@H](C(C)C)NC(=O)[C@@H]2CCCN2C(=O)[C@H](CCCNC(=N)N)NC1=O` [DX-513] (Ac-GDLHACRPVRGDPWWACTLGDPEGGG-NH2; disulfide 6-17) gave a Ki of 150 nM.

Same assay, conditions: inhibition of ACE-2 activity, M-2195 substrate; class by % inhibition at ~100 μM and IC50
`CSCC[C@@H]1NC(=O)[C@H](CCSC)NC(=O)[C@@H]2CCCN2C(=O)[C@H](C)NC(=O)[C@H](Cc2c[nH]c3ccccc23)NC(=O)[C@H](Cc2c[nH]cn2)NC(=O)[C@@H](NC(=O)[C@@H](NC(=O)[C@H](CCC(=O)O)NC(=O)[C@H](Cc2c[nH]c3ccccc23)NC(=O)CNC(=O)[C@H](C)NC(C)=O)C(C)C)CSSC[C@@H](C(=O)N[C@@H](CCCCN)C(=O)N[C@@H](Cc2c[nH]cn2)C(=O)NCC(=O)NCC(=O)N[C@H](C(=O)N[C@@H](CCC(=O)O)C(=O)NCC(=O)NCC(=O)NCC(N)=O)[C@@H](C)O)NC1=O` [DX-529] (Ac-AGWEVCHWAPMMCKHGGTEGGG-NH2; disulfide 6-13) was tested, and the Inhibition was “+++ (signifies strong inhibition (˜99% inhibition at ˜100 μM; with IC50 between 0.4-1 μM))”.
In the case of `CC(=O)NCC(=O)N[C@@H](CC(=O)O)C(=O)N[C@@H](CCCNC(=N)N)C(=O)N[C@@H](Cc1ccc(O)cc1)C(=O)N[C@@H](CC(C)C)C(=O)N[C@H]1CSSC[C@@H](C(=O)N[C@@H](CC(N)=O)C(=O)N[C@@H](Cc2c[nH]c3ccccc23)C(=O)N[C@@H](Cc2ccccc2)C(=O)N[C@@H](CC(=O)O)C(=O)N2CCC[C@H]2C(=O)N[C@@H](CCC(=O)O)C(=O)NCC(=O)NCC(=O)NCC(N)=O)NC(=O)[C@H](Cc2ccccc2)NC(=O)[C@H](CCCCN)NC(=O)[C@H](Cc2c[nH]c3ccccc23)NC(=O)[C@@H]2CCCN2C(=O)[C@H](CCCCN)NC(=O)[C@H](CC(=O)O)NC(=O)[C@H](CCCNC(=N)N)NC(=O)[C@H](CCC(N)=O)NC(=O)[C@@H]2CCCN2C(=O)[C@H](CC(C)C)NC1=O` [DX-599] (Ac-GDRYLCLPQRDKPWKFCNWFDPEGGG-NH2; disulfide 6-17), the Inhibition is reported as “++++ (signifies very strong inhibition (˜100% inhibition at 100 μM; with IC50 0.15 μM))”.
`CC(=O)N[C@@H](C)C(=O)NCC(=O)N[C@@H](CO)C(=O)N[C@@H](CC(=O)O)C(=O)N[C@@H](Cc1c[nH]c2ccccc12)C(=O)N[C@H]1CSSC[C@@H](C(=O)N[C@@H](Cc2ccccc2)C(=O)N[C@@H](Cc2c[nH]cn2)C(=O)N[C@@H](CCC(N)=O)C(=O)NCC(=O)N[C@H](C(=O)N[C@@H](CCC(=O)O)C(=O)NCC(=O)NCC(=O)NCC(N)=O)[C@@H](C)O)NC(=O)[C@@H]2CCCN2C(=O)[C@H](CC(N)=O)NC(=O)[C@H](CC(N)=O)NC(=O)[C@H](Cc2c[nH]c3ccccc23)NC(=O)[C@H]([C@@H](C)O)NC(=O)CNC1=O` [DX-531] (Ac-AGSDWCGTWNNPCFHQGTEGGG-NH2; disulfide 6-13) was tested, and the Inhibition was “+++ (signifies strong inhibition (˜99% inhibition at ˜100 μM; with IC50 between 0.4-1 μM))”.
In the case of `CC(=O)NCC(=O)N[C@@H](CC(=O)O)C(=O)N[C@@H](Cc1ccccc1)C(=O)N[C@@H](CO)C(=O)N1CCC[C@H]1C(=O)N[C@H]1CSSC[C@@H](C(=O)N2CCC[C@H]2C(=O)N[C@@H](CO)C(=O)NCC(=O)N[C@@H](CC(=O)O)C(=O)N2CCC[C@H]2C(=O)N[C@@H](CCC(=O)O)C(=O)NCC(=O)NCC(=O)NCC(N)=O)NC(=O)[C@H](C(C)C)NC(=O)[C@H](Cc2c[nH]c3ccccc23)NC(=O)[C@H](Cc2c[nH]c3ccccc23)NC(=O)[C@@H]2CCCN2C(=O)[C@H](CO)NC(=O)[C@H](Cc2c[nH]cn2)NC(=O)[C@H](CCCNC(=N)N)NC(=O)[C@H](CC(C)C)NC(=O)[C@H](C)NC(=O)[C@H](CCCCN)NC1=O` [DX-602] (Ac-GDFSPCKALRHSPWWVCPSGDPEGGG-NH2; disulfide 6-17), the Inhibition is reported as “++++ (signifies very strong inhibition (˜100% inhibition at 100 μM; with IC50 0.15 μM))”.
In the case of `CSCC[C@@H]1NC(=O)[C@H](Cc2c[nH]c3ccccc23)NC(=O)[C@@H]2CCCN2C(=O)[C@H](CO)NC(=O)[C@H](CCC(N)=O)NC(=O)[C@H](CCCNC(=N)N)NC(=O)[C@H](CCC(N)=O)NC(=O)[C@@H]2CCCN2C(=O)[C@H](CCCCN)NC(=O)[C@@H](NC(=O)[C@H](Cc2c[nH]cn2)NC(=O)[C@H](CC(C)C)NC(=O)[C@H](CCCNC(=N)N)NC(=O)[C@H](CC(=O)O)NC(=O)CNC(C)=O)CSSC[C@@H](C(=O)N[C@@H](CCC(N)=O)C(=O)N[C@@H](Cc2c[nH]cn2)C(=O)N[C@@H](CC(C)C)C(=O)N[C@@H](CC(=O)O)C(=O)N2CCC[C@H]2C(=O)N[C@@H](CCC(=O)O)C(=O)NCC(=O)NCC(=O)NCC(N)=O)NC(=O)[C@H](CCCCN)NC1=O` [DX-512] (Ac-GDRLHCKPQRQSPWMKCQHLDPEGGG-NH2; disulfide 6-17), the Inhibition is reported as “++++ (signifies very strong inhibition (˜100% inhibition at 100 μM; with IC50 0.15 μM))”.
In the case of `CC(=O)NCC(=O)N[C@@H](CC(=O)O)C(=O)N[C@@H](Cc1ccc(O)cc1)C(=O)N[C@@H](CO)C(=O)N[C@@H](Cc1c[nH]cn1)C(=O)N[C@H]1CSSC[C@@H](C(=O)N[C@H](C(=O)N[C@@H](Cc2ccc(O)cc2)C(=O)N2CCC[C@H]2C(=O)N[C@@H](CC(=O)O)C(=O)N2CCC[C@H]2C(=O)N[C@@H](CCC(=O)O)C(=O)NCC(=O)NCC(=O)NCC(N)=O)[C@@H](C)O)NC(=O)[C@H](CCCCN)NC(=O)[C@H](Cc2c[nH]c3ccccc23)NC(=O)[C@H](Cc2c[nH]c3ccccc23)NC(=O)[C@@H]2CCCN2C(=O)[C@H](Cc2ccc(O)cc2)NC(=O)[C@H](Cc2ccc(O)cc2)NC(=O)[C@H](CCCNC(=N)N)NC(=O)[C@H](CC(C)C)NC(=O)[C@@H]2CCCN2C(=O)[C@H](CO)NC1=O` [DX-600], the Inhibition is reported as “++++ (signifies very strong inhibition (˜100% inhibition at 100 μM; with IC50 0.15 μM))”.
In the case of `CC[C@H](C)[C@@H]1NC(=O)[C@@H]2CCCN2C(=O)[C@H](CO)NC(=O)[C@@H](NC(=O)[C@@H](NC(=O)[C@H](Cc2ccccc2)NC(=O)CNC(=O)[C@H](CC(=O)O)NC(=O)CNC(C)=O)[C@@H](C)O)CSSC[C@@H](C(=O)N[C@@H](CC(=O)O)C(=O)N[C@@H](CC(C)C)C(=O)NCC(=O)N[C@@H](CC(=O)O)C(=O)N2CCC[C@H]2C(=O)N[C@@H](CCC(=O)O)C(=O)NCC(=O)NCC(=O)NCC(N)=O)NC(=O)[C@H](CCCNC(=N)N)NC(=O)[C@H](Cc2ccccc2)NC(=O)[C@H](Cc2c[nH]c3ccccc23)NC(=O)[C@@H]2CCCN2C(=O)[C@H](Cc2ccccc2)NC(=O)[C@H](CCSC)NC(=O)[C@H](CCCNC(=N)N)NC1=O` [DX-601] (Ac-GDGFTCSPIRMFPWFRCDLGDPEGGG-NH2; disulfide 6-17), the Inhibition is reported as “++++ (signifies very strong inhibition (˜100% inhibition at 100 μM; with IC50 0.15 μM))”.
`CC(=O)NCC(=O)N[C@@H](CO)C(=O)N[C@@H](CCCNC(=N)N)C(=O)NCC(=O)N[C@@H](Cc1ccccc1)C(=O)N[C@H]1CSSC[C@@H](C(=O)N[C@@H](CO)C(=O)N[C@@H](Cc2ccccc2)C(=O)N2CCC[C@H]2C(=O)N[C@@H](C)C(=O)N2CCC[C@H]2C(=O)NCC(=O)N[C@@H](CCC(=O)O)C(=O)NCC(=O)NCC(=O)NCC(N)=O)NC(=O)[C@H](CO)NC(=O)[C@H](CO)NC(=O)[C@H](CC(=O)O)NC(=O)[C@H](CCCNC(=N)N)NC1=O` [DX-525] (Ac-GSRGFCRDSSCSFPAPGEGGG-NH2; disulfide 6-11) was tested, and the Inhibition was “+++ (signifies strong inhibition (˜99% inhibition at ˜100 μM; with IC50 between 0.4-1 μM))”.
With `CC[C@H](C)[C@H](NC(=O)[C@H](CCCNC(=N)N)NC(=O)[C@H](CO)NC(=O)CNC(C)=O)C(=O)NCC(=O)N[C@H]1CSSC[C@@H](C(=O)N[C@@H](CC(N)=O)C(=O)N[C@@H](Cc2c[nH]c3ccccc23)C(=O)N[C@@H](Cc2c[nH]c3ccccc23)C(=O)N[C@@H](C)C(=O)N2CCC[C@H]2C(=O)NCC(=O)N[C@@H](CCC(=O)O)C(=O)NCC(=O)NCC(=O)NCC(N)=O)NC(=O)[C@H](CCCNC(=N)N)NC(=O)[C@H](CO)NC(=O)[C@H](CC(=O)O)NC(=O)[C@H](CCCNC(=N)N)NC1=O` [DX-524] (Ac-GSRIGCRDSRCNWWAPGEGGG-NH2; disulfide 6-11) the Inhibition was “+++ (signifies strong inhibition (˜99% inhibition at ˜100 μM; with IC50 between 0.4-1 μM))”.
With `CC(=O)NCC(=O)N[C@@H](CC(=O)O)C(=O)N[C@@H](CC(C)C)C(=O)N[C@@H](Cc1c[nH]cn1)C(=O)N[C@@H](C)C(=O)N[C@H]1CSSC[C@@H](C(=O)N[C@H](C(=O)N[C@@H](CC(C)C)C(=O)NCC(=O)N[C@@H](CC(=O)O)C(=O)N2CCC[C@H]2C(=O)N[C@@H](CCC(=O)O)C(=O)NCC(=O)NCC(=O)NCC(N)=O)[C@@H](C)O)NC(=O)[C@H](C)NC(=O)[C@H](Cc2c[nH]c3ccccc23)NC(=O)[C@H](Cc2c[nH]c3ccccc23)NC(=O)[C@@H]2CCCN2C(=O)[C@H](CC(=O)O)NC(=O)CNC(=O)[C@H](CCCNC(=N)N)NC(=O)[C@H](C(C)C)NC(=O)[C@@H]2CCCN2C(=O)[C@H](CCCNC(=N)N)NC1=O` [DX-513] (Ac-GDLHACRPVRGDPWWACTLGDPEGGG-NH2; disulfide 6-17) the Inhibition was “++++ (signifies very strong inhibition (˜100% inhibition at 100 μM; with IC50 0.15 μM))”.
